How the values were obtained:
[1] = test system: corn; assay: Test A postemergence; format: in vivo, Zea mays; settings: 0 to 100 scale (0 no effect, 100 complete control), approx. 10 d
Procedure, shortened: (§1)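 Pre- and postemergence spray tests in a loam soil–sand mixture: seeded soil received a directed spray, while established seedlings 2–10 cm high at the one- to two-leaf stage were treated over the top. Compounds were carried in non-phytotoxic solvent with surfactant.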

[2] = test system: foxtail, giant; assay: Test A postemergence; format: in vivo, Setaria faberii; settings: 0 to 100 scale (0 no effect, 100 complete control), approx. 10 d
Procedure, shortened: as §1

[3] = test system: velvetleaf; assay: Test C postemergence; format: in vivo, Abutilon theophrasti
Procedure, shortened: (§2)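 Surfactant-containing, non-phytotoxic solvent formulations of each compound were applied either preemergence to seeds in a loam soil–sand blend or postemergence to plants 2 to 18 cm tall (1- to 4-leaf stage). Postemergence plants were grown in peat moss–vermiculite medium.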

[4] = test system: nutsedge, yellow; assay: Test C postemergence; format: in vivo, Cyperus esculentus
Procedure, shortened: as §2

[5] = test system: barnyardgrass; assay: Test A postemergence; format: in vivo, Echinochloa crus-galli; settings: 0 to 100 scale (0 no effect, 100 complete control), approx. 10 d
Procedure, shortened: as §1

[6] = test system: pigweed; assay: Test C postemergence; format: in vivo, Amaranthus retroflexus
Procedure, shortened: as §2

[7] = test system: barnyardgrass; assay: Test C postemergence; format: in vivo, Echinochloa crus-galli
Procedure, shortened: as §2

[8] = test system: johnsongrass; assay: Test C postemergence; format: in vivo, Sorghum halepense
Procedure, shortened: as §2

[9] = test system: foxtail, giant; assay: Test C postemergence; format: in vivo, Setaria faberii
Procedure, shortened: as §2

[10] = test system: chickweed; assay: Test C postemergence; format: in vivo, Stellaria media
Procedure, shortened: as §2

[11] = test system: wheat (winter wheat); assay: Test C postemergence; format: in vivo, Triticum aestivum
Procedure, shortened: as §2

[12] = test system: oilseed rape; assay: Test C postemergence; format: in vivo, Brassica napus; settings: Oilseed Rape
Procedure, shortened: as §2

[13] = test system: kochia; assay: Test C postemergence; format: in vivo, Kochia scoparia
Procedure, shortened: as §2

[14] = test system: ryegrass, Italian; assay: Test C postemergence; format: in vivo, Lolium multiflorum
Procedure, shortened: as §2

[15] = test system: pigweed; assay: Test A preemergence; format: in vivo, Amaranthus retroflexus; settings: 0 to 100 scale (0 no effect, 100 complete control)
Procedure, shortened: as §1

[16] = test system: oat, wild; assay: Test C postemergence; format: in vivo, Avena fatua
Procedure, shortened: as §2

[17] = test system: rice; assay: Test B flooded paddy test; format: in vivo, Oryza sativa; settings: 250 g ai/ha, applied to paddy water at 2-leaf stage, visual rating after 13 to 15 d, scale 0 (no effect) to 100 (complete control)
Procedure, shortened: (§3)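 Pots were flooded to 3 cm above the soil at treatment, and compounds were applied directly into the paddy water. That depth was held throughout. After 13 to 15 d in a greenhouse, plants were rated visually against untreated controls.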

[18] = test system: ragweed; assay: Test C postemergence; format: in vivo, Ambrosia elatior
Procedure, shortened: as §2

[19] = test system: ducksalad; assay: Test B flooded paddy test; format: in vivo, Heteranthera limosa; settings: 250 g ai/ha, applied to paddy water at 2-leaf stage, visual rating after 13 to 15 d, scale 0 (no effect) to 100 (complete control)
Procedure, shortened: as §3

[20] = test system: blackgrass; assay: Test C postemergence; format: in vivo, Alopecurus myosuroides
Procedure, shortened: as §2

CCOc1nc(-c2ccc(Cl)cc2)nn1Cc1ccnc(C(F)(F)F)c1 [Compound 26]
Plant response rating, Corn ([1]; 31 g ai/ha): 30
Plant response rating, Corn ([1]; 125 g ai/ha): 40
Plant response rating, Foxtail, Giant ([2]; 31 g ai/ha): 70
Plant response rating, Foxtail, Giant ([2]; 125 g ai/ha): 90
Plant response rating (scale of 0 to 100 where 0 is no effect and 100 is complete control) ([3]; 16 g ai/ha): 60
Plant response rating (scale of 0 to 100 where 0 is no effect and 100 is complete control) ([3]; 31 g ai/ha): 60
Plant response rating (scale of 0 to 100 where 0 is no effect and 100 is complete control) ([3]; 62 g ai/ha): 65
Plant response rating (scale of 0 to 100 where 0 is no effect and 100 is complete control) ([3]; 125 g ai/ha): 70
Plant response rating (scale of 0 to 100 where 0 is no effect and 100 is complete control) ([4]; 16 g ai/ha): 15
Plant response rating (scale of 0 to 100 where 0 is no effect and 100 is complete control) ([4]; 31 g ai/ha): 25
Plant response rating (scale of 0 to 100 where 0 is no effect and 100 is complete control) ([4]; 62 g ai/ha): 30
Plant response rating (scale of 0 to 100 where 0 is no effect and 100 is complete control) ([4]; 125 g ai/ha): 20
Plant response rating, Barnyardgrass ([5]; 31 g ai/ha): 40
Plant response rating, Barnyardgrass ([5]; 125 g ai/ha): 70
Plant response rating (scale of 0 to 100 where 0 is no effect and 100 is complete control) ([6]; 16 g ai/ha): 95
Plant response rating (scale of 0 to 100 where 0 is no effect and 100 is complete control) ([6]; 31 g ai/ha): 95
Plant response rating (scale of 0 to 100 where 0 is no effect and 100 is complete control) ([6]; 62 g ai/ha): 98
Plant response rating (scale of 0 to 100 where 0 is no effect and 100 is complete control) ([6]; 125 g ai/ha): 98
Plant response rating (scale of 0 to 100 where 0 is no effect and 100 is complete control) ([7]; 16 g ai/ha): 25
Plant response rating (scale of 0 to 100 where 0 is no effect and 100 is complete control) ([7]; 31 g ai/ha): 30
Plant response rating (scale of 0 to 100 where 0 is no effect and 100 is complete control) ([7]; 62 g ai/ha): 45
Plant response rating (scale of 0 to 100 where 0 is no effect and 100 is complete control) ([7]; 125 g ai/ha): 55
Plant response rating (scale of 0 to 100 where 0 is no effect and 100 is complete control) ([8]; 16 g ai/ha): 25
Plant response rating (scale of 0 to 100 where 0 is no effect and 100 is complete control) ([8]; 31 g ai/ha): 20
Plant response rating (scale of 0 to 100 where 0 is no effect and 100 is complete control) ([8]; 62 g ai/ha): 35
Plant response rating (scale of 0 to 100 where 0 is no effect and 100 is complete control) ([8]; 125 g ai/ha): 55
Plant response rating (scale of 0 to 100 where 0 is no effect and 100 is complete control) ([9]; 16 g ai/ha): 10
Plant response rating (scale of 0 to 100 where 0 is no effect and 100 is complete control) ([9]; 31 g ai/ha): 20
Plant response rating (scale of 0 to 100 where 0 is no effect and 100 is complete control) ([9]; 62 g ai/ha): 25
Plant response rating (scale of 0 to 100 where 0 is no effect and 100 is complete control) ([9]; 125 g ai/ha): 40
Plant response rating (scale of 0 to 100 where 0 is no effect and 100 is complete control) ([10]; 16 g ai/ha): 90
Plant response rating (scale of 0 to 100 where 0 is no effect and 100 is complete control) ([10]; 31 g ai/ha): 95
Plant response rating (scale of 0 to 100 where 0 is no effect and 100 is complete control) ([10]; 62 g ai/ha): 95
Plant response rating (scale of 0 to 100 where 0 is no effect and 100 is complete control) ([10]; 125 g ai/ha): 95
Plant response rating (scale of 0 to 100 where 0 is no effect and 100 is complete control) ([11]; 16 g ai/ha): 5
Plant response rating (scale of 0 to 100 where 0 is no effect and 100 is complete control) ([11]; 31 g ai/ha): 10
Plant response rating (scale of 0 to 100 where 0 is no effect and 100 is complete control) ([11]; 62 g ai/ha): 10
Plant response rating (scale of 0 to 100 where 0 is no effect and 100 is complete control) ([11]; 125 g ai/ha): 10
Plant response rating (scale of 0 to 100 where 0 is no effect and 100 is complete control) ([12]; 16 g ai/ha): 90
Plant response rating (scale of 0 to 100 where 0 is no effect and 100 is complete control) ([12]; 31 g ai/ha): 98
Plant response rating (scale of 0 to 100 where 0 is no effect and 100 is complete control) ([12]; 62 g ai/ha): 90
Plant response rating (scale of 0 to 100 where 0 is no effect and 100 is complete control) ([12]; 125 g ai/ha): 95
Plant response rating (scale of 0 to 100 where 0 is no effect and 100 is complete control) ([13]; 16 g ai/ha): 85
Plant response rating (scale of 0 to 100 where 0 is no effect and 100 is complete control) ([13]; 31 g ai/ha): 90
Plant response rating (scale of 0 to 100 where 0 is no effect and 100 is complete control) ([13]; 62 g ai/ha): 90
Plant response rating (scale of 0 to 100 where 0 is no effect and 100 is complete control) ([13]; 125 g ai/ha): 90
Plant response rating (scale of 0 to 100 where 0 is no effect and 100 is complete control) ([14]; 16 g ai/ha): 20
Plant response rating (scale of 0 to 100 where 0 is no effect and 100 is complete control) ([14]; 31 g ai/ha): 35
Plant response rating (scale of 0 to 100 where 0 is no effect and 100 is complete control) ([14]; 62 g ai/ha): 35
Plant response rating (scale of 0 to 100 where 0 is no effect and 100 is complete control) ([14]; 125 g ai/ha): 40
Plant response rating, Pigweed ([15]; 31 g ai/ha): 90
Plant response rating, Pigweed ([15]; 125 g ai/ha): 100
Plant response rating (scale of 0 to 100 where 0 is no effect and 100 is complete control) ([16]; 16 g ai/ha): 35
Plant response rating (scale of 0 to 100 where 0 is no effect and 100 is complete control) ([16]; 31 g ai/ha): 35
Plant response rating (scale of 0 to 100 where 0 is no effect and 100 is complete control) ([16]; 62 g ai/ha): 40
Plant response rating (scale of 0 to 100 where 0 is no effect and 100 is complete control) ([16]; 125 g ai/ha): 45
Plant response rating, Rice, Flood [17]: 45
Plant response rating (scale of 0 to 100 where 0 is no effect and 100 is complete control) ([18]; 16 g ai/ha): 85
Plant response rating (scale of 0 to 100 where 0 is no effect and 100 is complete control) ([18]; 31 g ai/ha): 90
Plant response rating (scale of 0 to 100 where 0 is no effect and 100 is complete control) ([18]; 62 g ai/ha): 70
Plant response rating (scale of 0 to 100 where 0 is no effect and 100 is complete control) ([18]; 125 g ai/ha): 85
Plant response rating, Ducksalad, Flood [19]: 70
Plant response rating (scale of 0 to 100 where 0 is no effect and 100 is complete control) ([20]; 16 g ai/ha): 15
Plant response rating (scale of 0 to 100 where 0 is no effect and 100 is complete control) ([20]; 31 g ai/ha): 35
Plant response rating (scale of 0 to 100 where 0 is no effect and 100 is complete control) ([20]; 62 g ai/ha): 40
Plant response rating (scale of 0 to 100 where 0 is no effect and 100 is complete control) ([20]; 125 g ai/ha): 40
